{
  "source": "patent US20080039408A1",
  "about": "“Use of Oxypurinol as an Inhibitor of Anti-Neoplastic Agent-Induced Cardiotoxicity” (priority 2004, published 2008)",
  "key": {"[1]": {"target": "xanthine oxidase (Homo sapiens, UniProt P47989)", "sequence (P47989 whole entry, species assumed)": "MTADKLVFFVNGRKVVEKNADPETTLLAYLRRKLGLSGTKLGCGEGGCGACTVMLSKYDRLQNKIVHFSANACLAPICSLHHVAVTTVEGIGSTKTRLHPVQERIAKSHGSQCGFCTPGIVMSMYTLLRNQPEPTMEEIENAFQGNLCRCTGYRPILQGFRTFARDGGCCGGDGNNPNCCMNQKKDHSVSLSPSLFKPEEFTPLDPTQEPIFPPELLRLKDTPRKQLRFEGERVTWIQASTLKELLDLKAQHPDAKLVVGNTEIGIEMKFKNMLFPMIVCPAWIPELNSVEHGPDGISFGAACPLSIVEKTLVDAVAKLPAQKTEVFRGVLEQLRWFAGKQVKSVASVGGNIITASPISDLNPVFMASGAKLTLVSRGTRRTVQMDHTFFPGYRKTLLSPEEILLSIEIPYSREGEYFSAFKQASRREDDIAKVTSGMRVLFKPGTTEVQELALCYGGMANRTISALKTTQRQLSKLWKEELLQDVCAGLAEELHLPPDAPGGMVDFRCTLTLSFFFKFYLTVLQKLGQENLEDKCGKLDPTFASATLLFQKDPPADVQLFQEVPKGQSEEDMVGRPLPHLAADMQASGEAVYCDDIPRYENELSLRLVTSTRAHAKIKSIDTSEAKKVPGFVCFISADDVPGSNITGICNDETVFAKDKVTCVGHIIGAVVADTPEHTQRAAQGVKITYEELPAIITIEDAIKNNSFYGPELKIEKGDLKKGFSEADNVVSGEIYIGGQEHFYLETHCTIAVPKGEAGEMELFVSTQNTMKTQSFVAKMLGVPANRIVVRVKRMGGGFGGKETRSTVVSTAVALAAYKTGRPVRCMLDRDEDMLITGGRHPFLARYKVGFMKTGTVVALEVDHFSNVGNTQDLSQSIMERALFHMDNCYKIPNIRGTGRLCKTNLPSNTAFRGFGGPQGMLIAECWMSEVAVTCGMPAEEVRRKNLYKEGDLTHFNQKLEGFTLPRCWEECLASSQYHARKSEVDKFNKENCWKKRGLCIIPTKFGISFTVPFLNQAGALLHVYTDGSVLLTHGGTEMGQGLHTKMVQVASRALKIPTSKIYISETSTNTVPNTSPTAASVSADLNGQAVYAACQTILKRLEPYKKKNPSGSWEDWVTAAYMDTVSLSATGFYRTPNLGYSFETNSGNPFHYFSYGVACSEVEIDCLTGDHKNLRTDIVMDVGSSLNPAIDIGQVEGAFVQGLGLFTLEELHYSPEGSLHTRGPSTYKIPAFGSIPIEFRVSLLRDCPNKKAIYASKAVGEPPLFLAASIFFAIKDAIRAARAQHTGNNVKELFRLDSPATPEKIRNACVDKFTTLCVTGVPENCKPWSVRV", "conditions": "cited from earlier work"}, "[2]": {"tested_on": "laboratory animals", "conditions": "all laboratory animals tested; cited from earlier work"}, "[3]": {"tested_on": "patients", "conditions": "4-15 years after completion of chemotherapy; cited from earlier work"}, "[4]": {"tested_on": "Female CD1 mice", "method": "Female CD1 mice, weighing 20-22 g, were obtained from Charles River with implanted jugular catheters. Prior to induction of doxorubicin cardiotoxicity, the animals were randomly divided into 2 groups: • Group 1: Treatment with Oxypurinol (n=15), 26 mg/dl in the drinking water, start 3 days prior to doxorubicin dose and continue to sacrifice. • Group 2: Treatment with Vehicle (Saline) (n=10), start 3 days prior to doxorubicin dose and continue to sacrifice.\nFor induction of doxorubicin cardiotoxicity, doxorubicin, dissolved in saline, was injected by IV through the jugular catheter twice a week (Monday and Thursday) ten times at dose 4 mg/kg/day. Between doses 4 and 5 there was a two weeks hiatus to allow recovery of bone marrow suppression.\nSeventeen mice were included in the vehicle Group 2. Two mice had jugular catheters that were nonoperable and excluded at the outset. Fifteen mice were included in the drug Group 1.\nSeven surviving vehicle Group 2 (control) animals were sacrificed and 11 surviving drug Group 1 mice were sacrificed."}},
  "note": "Counter-ions that a name gives are not always drawn.",
  "data": [
    {"smiles": "Oc1ncnc2[nH]ncc12", "note": "[allopurinol, 1,5-dihydro4H-pyrazolol[3,4-d}pyrimidin-4-one monosodium salt, reference compound]", "values": [
      {"measurement": "immediate inhibition of superoxide radical production", "setting": "[1]", "result": "very little immediate inhibition"}
    ]},
    {"smiles": "C[C@@H](CN1CC(=O)NC(=O)C1)N1CC(=O)NC(=O)C1", "note": "[dexrazoxane]", "values": [
      {"measurement": "chronic cardiotoxicity in laboratory animals", "setting": "[2]", "result": "prevents chronic cardiotoxicity"}
    ]},
    {"smiles": "COc1cccc2c1C(=O)c1c(O)c3c(c(O)c1C2=O)C[C@@](O)(C(=O)CO)C[C@@H]3O[C@H]1C[C@H](N)[C@H](O)[C@H](C)O1", "note": "[doxorubicin, 14-hydroxydaunomycin]", "values": [
      {"measurement": "late onset chronic cardiac events, share of patients", "setting": "[3]", "result": "18-65%"}
    ]},
    {"smiles": "O=c1[nH]c(=O)c2c[nH]nc2[nH]1", "note": "[oxypurinol]", "values": [
      {"measurement": "cellular necrosis score, difference vs vehicle", "setting": "[4]; histology of surviving mice sacrificed prior to dose 4 of doxorubicin", "result": "not statistically significant"},
      {"measurement": "mean cellular swelling score", "setting": "[4]; histology of surviving mice sacrificed prior to dose 4 of doxorubicin, 11 mice, p=0.004 vs vehicle", "result": "1.8±0.4"},
      {"measurement": "deaths following 3 doses of doxorubicin", "setting": "[4]; oxypurinol 26 mg/dl in drinking water from 3 days before doxorubicin, doxorubicin 4 mg/kg/day IV twice a week, 15 mice in group", "result": 3, "unit": "deaths"},
      {"measurement": "mortality vs vehicle group", "setting": "[4]; oxypurinol Group 1 vs vehicle Group 2, doxorubicin-treated mice", "result": "highly significant decrease in mortality"},
      {"measurement": "immediate inhibition of superoxide radical production", "setting": "[1]", "result": "produces immediate inhibition"}
    ]}
  ]
}
